These results are taken from US10093713B2, “GIP-GLP-1 dual agonist compounds and methods” (priority 2013, dated 2018).

Assay [1] addresses T1, human GIP R (Homo sapiens, UniProt P48546).
T1 construct: expressed in transfected cells
T1 sequence (P48546 22-466): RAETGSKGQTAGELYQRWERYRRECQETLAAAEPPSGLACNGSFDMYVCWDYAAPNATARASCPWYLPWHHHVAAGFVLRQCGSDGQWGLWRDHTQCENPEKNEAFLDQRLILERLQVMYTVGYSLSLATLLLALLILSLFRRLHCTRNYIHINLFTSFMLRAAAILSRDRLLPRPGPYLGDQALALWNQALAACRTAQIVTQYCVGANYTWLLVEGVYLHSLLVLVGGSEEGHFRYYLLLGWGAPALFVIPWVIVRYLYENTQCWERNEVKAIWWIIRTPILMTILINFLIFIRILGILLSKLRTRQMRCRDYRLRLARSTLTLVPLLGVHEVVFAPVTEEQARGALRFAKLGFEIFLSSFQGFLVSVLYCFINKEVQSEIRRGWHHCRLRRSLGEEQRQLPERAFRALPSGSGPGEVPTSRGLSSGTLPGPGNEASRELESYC
The assay is described as follows: Human GIP receptor (GIP R) activity assay, cAMP induction (AlphaScreen) in HEK293 cells. Type of assay: cell-based. As to conditions: read-out: hGIP-R cAMP EC50 average value. The method, then:
(§1) Human GIP Receptor (GIP R) and GLP-1 Receptor (GLP-1 R) Activity Assay
(§2) In vitro effects of peptide conjugates of the invention were assessed by measuring the induction of cAMP following stimulation of the respective receptor by GIP, GLP1 or analogues of these, as outlined in the invention, using the AlphaSceen® cAMP kit from Perkin-Elmer according to instructions. Briefly, HEK293 cells expressing the human GIP R or GLP-1 R (stable cell lines generated through transfection of the cDNA for human GIP R or GLP-1 and selection of stable clones) were seeded at 30,000 cells/well in 96-well microtiter plates coated with 0.01% poly-L-lysine, and grown for 1 day in culture in 200 μl growth medium (DMEM, 10% FCS, Penicillin (100 IU/ml), Streptomycin (100 μg/ml)). On the day of analysis, growth medium was removed and the cells were washed once with […] Tyrode's buffer (Tyrode's Salts (9.6 g/l), 10 mM HEPES, pH 7.4). […] The Assay buffer was removed and cells are lysed in 80 μl Lysis buffer (0.1% w/v BSA, 5 mM HEPES, 0.3% v/v Tween-20) per well. From each well 10 μl lysed cells was transferred to a 384-well plate and mixed with 15 μl bead-mix (1 Unit/15 μl anti-cAMP Acceptor Beads, 1 Unit/15 μl Donor Beads, and 1 Unit/15 μl Biotinylated cAMP in Assay Buffer). The plates were mixed and incubated in the dark for an hour at room temperature before measuring using an Envision™ plate reader (Perkin-Elmer).
(§3) The resulting cAMP curves were plotted as absolute cAMP concentrations (nM) over log (test compound concentration) and analyzed using the curve fitting program XLfit.
(§4) Parameters calculated to describe both the potency as well as the agonistic activity of each test compound on the receptors were:
(§5) EC50, a concentration resulting in a half-maximal elevation of cAMP levels, reflecting the potency of the test compound.

In assay [2] the target is T2, human GLP-1 R (Homo sapiens, UniProt P43220).
T2 construct: expressed in transfected cells
T2 sequence (P43220 24-463): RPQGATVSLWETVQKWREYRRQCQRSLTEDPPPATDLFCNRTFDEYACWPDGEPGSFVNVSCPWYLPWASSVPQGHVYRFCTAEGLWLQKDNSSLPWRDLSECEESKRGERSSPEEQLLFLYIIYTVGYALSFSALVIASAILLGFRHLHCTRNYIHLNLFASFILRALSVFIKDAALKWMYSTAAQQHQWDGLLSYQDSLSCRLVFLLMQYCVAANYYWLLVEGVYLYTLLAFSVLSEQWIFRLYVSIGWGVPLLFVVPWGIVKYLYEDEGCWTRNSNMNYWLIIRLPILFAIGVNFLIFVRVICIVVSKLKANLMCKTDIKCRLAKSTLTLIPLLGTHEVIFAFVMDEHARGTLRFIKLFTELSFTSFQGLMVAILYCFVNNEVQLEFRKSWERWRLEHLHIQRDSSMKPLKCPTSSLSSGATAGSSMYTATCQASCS
The assay is described as follows: Human GLP-1 receptor (GLP-1 R) activity assay, cAMP induction (AlphaScreen) in HEK293 cells. Format: cell-based. The method, then:
as §1, §2, §3, §4, §5
Background: In Alpha technology, singlet oxygen from a donor bead excites a nearby acceptor bead.

Where [3] appears, read: Table 2a, secondary assay study.
The mark [4] stands for this setting: Table 2a, secondary assay study, read-out: hGLP1-R cAMP EC50 average value.
[5] abbreviates: Table 2, HEK293 cells expressing human GIP R.
The mark [6] stands for this setting: Table 2, HEK293 cells expressing human GLP-1 R, read-out: hGLP1-R cAMP EC50 average value.

pEC50: −log10 of the molar value. Where two headings read alike, the source gives them in different places. *1 amine or outer side, *2 acyl side, *3 side chain or, on linkers, in order; H or OH if unused. Where a SMILES comes first, the peptide text is derived from it. Side-chain parts run from the residue outwards. [ ]: non-standard residue; d: D form. The star is where a group is joined. C18 diacid = O=C(O)CCCCCCCCCCCCCCCCC(=O)*; γGlu = O=C(O)[C@H](CCC(=O)[*:2])N[*:1]; AEEA = NCCOCCOCC(=O)O; Aib = CC(C)(N)C(=O)O

As usually defined, the pEC50 is the EC50 on a negative log10 scale, so that one unit is a factor of ten. As to `CC[C@H](C)[C@H](NC(=O)[C@H](CO)NC(=O)[C@H](Cc1ccc(O)cc1)NC(=O)[C@H](CC(=O)O)NC(=O)[C@H](CO)NC(=O)[C@@H](NC(=O)[C@H](Cc1ccccc1)NC(=O)[C@@H](NC(=O)CNC(=O)[C@H](CCC(=O)O)NC(=O)C(C)(C)NC(=O)[C@@H](N)Cc1ccc(O)cc1)[C@@H](C)O)[C@@H](C)O)C(=O)N[C@@H](C)C(=O)N[C@@H](CC(C)C)C(=O)N[C@@H](CC(=O)O)C(=O)N[C@@H](CCCCN)C(=O)N[C@@H](CCCCNC(=O)COCCOCCNC(=O)COCCOCCNC(=O)CC[C@H](NC(=O)CCCCCCCCCCCCCCCCCCC(=O)O)C(=O)O)C(=O)N[C@@H](C)C(=O)N[C@@H](CCC(N)=O)C(=O)N[C@@H](CCCNC(=N)N)C(=O)N[C@@H](C)C(=O)N[C@@H](Cc1ccccc1)C(=O)N[C@H](C(=O)N[C@@H](CC(N)=O)C(=O)N[C@@H](Cc1c[nH]c2ccccc12)C(=O)N[C@@H](CC(C)C)C(=O)N[C@H](C(=O)N[C@@H](C)C(=O)NC(C)(C)C(=O)N[C@@H](CCCCN)C(=O)N1CCC[C@H]1C(=O)N[C@@H](CO)C(=O)N[C@@H](CO)C(=O)NCC(=O)N[C@@H](C)C(=O)N1CCC[C@H]1C(=O)N1CCC[C@H]1C(=O)N1CCC[C@H]1C(=O)N[C@@H](CO)C(N)=O)C(C)C)C(C)C` [Compound 16], the negative-log EC50 (pEC50) was 11.10 in assay [1] (setting [3]) and 11.05 in assay [2] (setting [4]).

As to `CC[C@H](C)[C@H](NC(=O)[C@H](CO)NC(=O)[C@H](CC(C)C)NC(=O)[C@H](CC(=O)O)NC(=O)[C@H](CO)NC(=O)[C@@H](NC(=O)[C@H](Cc1ccccc1)NC(=O)[C@@H](NC(=O)CNC(=O)[C@H](CCC(=O)O)NC(=O)C(C)(C)NC(=O)[C@@H](N)Cc1ccc(O)cc1)[C@@H](C)O)[C@@H](C)O)C(=O)N[C@@H](C)C(=O)N[C@@H](CC(C)C)C(=O)N[C@@H](CCC(=O)O)C(=O)N[C@@H](CCCCN)C(=O)N[C@@H](CCCCNC(=O)COCCOCCNC(=O)COCCOCCNC(=O)CC[C@H](NC(=O)CCCCCCCCCCCCCCCCC(=O)O)C(=O)O)C(=O)N[C@@H](C)C(=O)N[C@@H](CCC(N)=O)C(=O)N[C@@H](CCCNC(=N)N)C(=O)N[C@@H](C)C(=O)N[C@@H](Cc1ccccc1)C(=O)N[C@H](C(=O)N[C@@H](CCC(=O)O)C(=O)N[C@@H](Cc1c[nH]c2ccccc12)C(=O)N[C@@H](CC(C)C)C(=O)N[C@@H](CC(C)C)C(=O)N[C@@H](C)C(=O)N[C@@H](CCC(N)=O)C(=O)N[C@@H](CCCCN)C(N)=O)C(C)C` [Compound 17] (H-Y[Aib]EGTFTSDLSIALEKK([AEEA-AEEA-γGlu-C18 diacid])AQRAFVEWLLAQK-NH2), the negative-log EC50 (pEC50) is 10.96 in assay [1] (setting [5]); 11.21 in assay [2] (setting [6]); 11.22 in assay [2] (Table 3, most comprehensive data, read-out: hGLP-1-R cAMP EC50 average value).

`CC[C@H](C)[C@H](NC(=O)[C@H](CO)NC(=O)[C@H](Cc1ccc(O)cc1)NC(=O)[C@H](CC(=O)O)NC(=O)[C@H](CO)NC(=O)[C@@H](NC(=O)[C@H](Cc1ccccc1)NC(=O)[C@@H](NC(=O)CNC(=O)[C@H](CCC(=O)O)NC(=O)C(C)(C)NC(=O)[C@@H](N)Cc1ccc(O)cc1)[C@@H](C)O)[C@@H](C)O)C(=O)N[C@@H](C)C(=O)N[C@@H](CC(C)C)C(=O)N[C@@H](CCC(=O)O)C(=O)N[C@@H](CCCCN)C(=O)N[C@@H](CCCCNC(=O)COCCOCCNC(=O)COCCOCCNC(=O)CC[C@H](NC(=O)CCCCCCCCCCCCCCCCC(=O)O)C(=O)O)C(=O)N[C@@H](C)C(=O)N[C@@H](CCC(N)=O)C(=O)N[C@@H](CCCNC(=N)N)C(=O)N[C@@H](C)C(=O)N[C@@H](Cc1ccccc1)C(=O)N[C@H](C(=O)N[C@@H](CCC(=O)O)C(=O)N[C@@H](Cc1c[nH]c2ccccc12)C(=O)N[C@@H](CC(C)C)C(=O)N[C@@H](CC(C)C)C(=O)N[C@@H](C)C(=O)N[C@@H](CCC(N)=O)C(=O)N[C@@H](CCCCN)C(N)=O)C(C)C` [Compound 17] (H-Y[Aib]EGTFTSDYSIALEKK([AEEA-AEEA-γGlu-C18 diacid])AQRAFVEWLLAQK-NH2): the negative logarithm of the EC50 (pEC50) in assay [1] (setting [3]) is 11.10; in assay [2] (setting [4]), 10.82.

As to `CC[C@H](C)[C@H](NC(=O)[C@H](CO)NC(=O)[C@H](CC(C)C)NC(=O)[C@H](CC(=O)O)NC(=O)[C@H](CO)NC(=O)[C@@H](NC(=O)[C@H](Cc1ccccc1)NC(=O)[C@@H](NC(=O)CNC(=O)[C@H](CCC(=O)O)NC(=O)C(C)(C)NC(=O)[C@@H](N)Cc1ccc(O)cc1)[C@@H](C)O)[C@@H](C)O)C(=O)N[C@@H](C)C(=O)N[C@@H](CC(C)C)C(=O)N[C@@H](CCC(=O)O)C(=O)N[C@@H](CCCCN)C(=O)N[C@@H](CCCCNC(=O)COCCOCCNC(=O)COCCOCCNC(=O)CC[C@H](NC(=O)CCCCCCCCCCCCCCCCC(=O)O)C(=O)O)C(=O)N[C@@H](C)C(=O)N[C@@H](CCC(N)=O)C(=O)N[C@@H](CCCNC(=N)N)C(=O)N[C@@H](C)C(=O)N[C@@H](Cc1ccccc1)C(=O)N[C@H](C(=O)N[C@@H](CCC(=O)O)C(=O)N[C@@H](Cc1c[nH]c2ccccc12)C(=O)N[C@@H](CC(C)C)C(=O)N[C@@H](CC(C)C)C(=O)N[C@@H](C)C(=O)N[C@@H](CCC(N)=O)C(=O)N[C@@H](CCCCN)C(N)=O)C(C)C` [Compound 18] (H-Y[Aib]EGTFTSDLSIALEKK([AEEA-AEEA-γGlu-C18 diacid])AQRAFVEWLLAQK-NH2), the pEC50 in assay [1] (setting [3]) is 10.96; in assay [2] (setting [4]) it was 11.22.

On to `CC[C@H](C)[C@H](NC(=O)[C@H](CO)NC(=O)[C@H](Cc1ccc(O)cc1)NC(=O)[C@H](CC(=O)O)NC(=O)[C@H](CO)NC(=O)[C@@H](NC(=O)[C@H](Cc1ccccc1)NC(=O)[C@@H](NC(=O)CNC(=O)[C@H](CCC(=O)O)NC(=O)C(C)(C)NC(=O)[C@@H](N)Cc1ccc(O)cc1)[C@@H](C)O)[C@@H](C)O)C(=O)N[C@@H](Cc1ccc(O)cc1)C(=O)N[C@@H](CC(C)C)C(=O)N[C@@H](CCC(=O)O)C(=O)N[C@@H](CCCCN)C(=O)N[C@@H](CCCCNC(=O)COCCOCCNC(=O)COCCOCCNC(=O)CC[C@H](NC(=O)CCCCCCCCCCCCCCCCC(=O)O)C(=O)O)C(=O)N[C@@H](C)C(=O)N[C@@H](CCC(N)=O)C(=O)N[C@@H](CCCNC(=N)N)C(=O)N[C@@H](C)C(=O)N[C@@H](Cc1ccccc1)C(=O)N[C@H](C(=O)N[C@@H](CCC(=O)O)C(=O)N[C@@H](Cc1c[nH]c2ccccc12)C(=O)N[C@@H](CC(C)C)C(=O)N[C@@H](CC(C)C)C(=O)N[C@@H](CCCNC(=N)N)C(=O)N[C@@H](C)C(N)=O)C(C)C` [Compound 18] (H-Y[Aib]EGTFTSDYSIYLEKK([AEEA-AEEA-γGlu-C18 diacid])AQRAFVEWLLRA-NH2), for which the pEC50 was 10.85 in assay [1] (setting [5]) and 10.66 in assay [2] (setting [6]).

As for `CC[C@H](C)[C@H](NC(=O)[C@H](CO)NC(=O)[C@H](Cc1ccc(O)cc1)NC(=O)[C@H](CC(=O)O)NC(=O)[C@H](CO)NC(=O)[C@@H](NC(=O)[C@H](Cc1ccccc1)NC(=O)[C@@H](NC(=O)CNC(=O)[C@H](CCC(=O)O)NC(=O)C(C)(C)NC(=O)[C@@H](N)Cc1ccc(O)cc1)[C@@H](C)O)[C@@H](C)O)C(=O)N[C@@H](C)C(=O)N[C@@H](CC(C)C)C(=O)N[C@@H](CC(=O)O)C(=O)N[C@@H](CCCCN)C(=O)N[C@@H](CCCCNC(=O)COCCOCCNC(=O)COCCOCCNC(=O)CC[C@H](NC(=O)CCCCCCCCCCCCCCCCC(=O)O)C(=O)O)C(=O)N[C@@H](C)C(=O)N[C@@H](CCC(N)=O)C(=O)N[C@@H](CCCNC(=N)N)C(=O)N[C@@H](C)C(=O)N[C@@H](Cc1ccccc1)C(=O)N[C@H](C(=O)N[C@@H](CC(N)=O)C(=O)N[C@@H](Cc1c[nH]c2ccccc12)C(=O)N[C@@H](CC(C)C)C(=O)N[C@H](C(=O)N[C@@H](C)C(=O)NC(C)(C)C(=O)N[C@@H](CCCCN)C(N)=O)C(C)C)C(C)C` [Compound 19] (H-Y[Aib]EGTFTSDYSIALDKK([AEEA-AEEA-γGlu-C18 diacid])AQRAFVNWLVA[Aib]K-NH2), the negative-log EC50 (pEC50) was 11.14 in assay [1] (setting [5]); 11.15 in assay [1] (Table 3, most comprehensive data); 10.85 in assay [2] (setting [6]).
